Several values for one entry are separate records, joined by “and”; a condition that tells them apart may be missing. Equal values may be shown once.
Columns and labels:
[1] = test system: precocious branches of Eucalyptus camaldulensis; test: Transgenic calli formation after infection induction treatment of precocious branches with NAA, then Agrobacterium tumefaciens EHA101/pIG121-Hm infection; assay type: cell-based; details: 30 days
Description: Culturing was performed for 7 to 14 days at a temperature of 26 to 28° C. under dark conditions. After cutting the precocious branches subjected to the infection induction treatment to segments of 2 to 10 mm length with a knife, the segments were immersed in the culture medium of Agrobacterium tumefaciens strain EHA101/pIG121-Hm prepared according to the method described above. After wiping off the culture medium adhered to the segments of the precocious branches with filter paper, the sections of the precocious branches were embedded in an infection medium containing 2 mg/l NAA, 0.2 mg/l 4-PU, 1 mM galactose, 10 μM acetosyringone, 3% sucrose and 0.02% gellan gum in B5 basal medium, followed by stationary-culturing for 2 days at a temperature of 26° C. and under dark conditions to infect the precocious branches with Agrobacterium tumefaciens. With the exception of inducing precocious branches from three Eucalyptus camaldulensis plants, and performing infection induction treatment with the concentration of NAA in the precocious branch infection induction medium at 0, 0.02, 0.2 or 2.0 mg/l, the precocious branches were infected with Agrobacterium tumefaciens strain EHA101/pIG121-Hm in the same manner as described in Example 1, and the number of transgenic calli that express intron GUS gene was investigated 30 days after the start of the infection induction treatment. For plant 1, the case of testing precocious branches of the untreated group on which infection treatment was not performed, transformation efficiency of 23.1% was obtained. […] In addition, in the untreated group of plant 2 as well in which infection was difficult, transgenic calli were observed following infection induction by NAA. One the basis of these findings, infection induction treatment of precocious branches was clearly shown to be effective in improving transformation efficiency.

[2] = test system: precocious branches of Eucalyptus camaldulensis; test: Transgenic calli formation with varied NAA concentration in infection medium and sterilization medium; assay type: cell-based; details: 4-PU 0.2 mg/l
Description: After cutting the precocious branches subjected to the infection induction treatment to segments of 2 to 10 mm length with a knife, the segments were immersed in the culture medium of Agrobacterium tumefaciens strain EHA101/pIG121-Hm prepared according to the method described above. After wiping off the culture medium adhered to the segments of the precocious branches with filter paper, the sections of the precocious branches were embedded in an infection medium containing 2 mg/l NAA, 0.2 mg/l 4-PU, 1 mM galactose, 10 μM acetosyringone, 3% sucrose and 0.02% gellan gum in B5 basal medium, followed by stationary-culturing for 2 days at a temperature of 26° C. and under dark conditions to infect the precocious branches with Agrobacterium tumefaciens. The explant segments treated as described above were transplanted to a sterilization medium containing 2 mg/l NAA, 0.2 mg/l 4-PU or 4CPPU, 3% sucrose, and 500 mg/l of carbenicillin as antibiotic for sterilizing Agrobacterium attached to the explant segments, and were vertical-rotary-cultured for 7 - days at a temperature of 26° C. and rotating speed of 2 rpm under dark conditions to sterilize the Agrobacterium tumefaciens. With the exception of inducing precocious branches from a different plant of Eucalyptus camaldulensis, and the NAA concentrations used in the infection medium and sterilization medium, the precocious branches were infected with agrobacterium tumefaciens strain EHA101/pIG121-Hm in the same manner as described in Example 1 to produce transgenic calli.

O=C(O)Cc1cccc2ccccc12 [NAA, naphthaleneacetic acid]
Transformation efficiency = No. of transgenic calli/No. of tested segments × 100 ([1]; plant No. 1, NAA 0.02 mg/l in infection induction medium): 72.9% and 73%
Transformation efficiency = No. of transgenic calli/No. of tested segments × 100 ([1]; plant No. 1, NAA 0.2 mg/l in infection induction medium): 64%
Transformation efficiency = No. of transgenic calli/No. of tested segments × 100 ([1]; plant No. 1, NAA 2.0 mg/l in infection induction medium): 49%
Transformation efficiency = No. of transgenic calli/No. of tested segments × 100 ([1]; plant No. 2, NAA 0.02 mg/l in infection induction medium): 8%
Transformation efficiency = No. of transgenic calli/No. of tested segments × 100 ([1]; plant No. 2, NAA 0.2 mg/l in infection induction medium): 31%
Transformation efficiency = No. of transgenic calli/No. of tested segments × 100 ([1]; plant No. 2, NAA 2.0 mg/l in infection induction medium): 19%
Transformation efficiency = No. of transgenic calli/No. of tested segments × 100 ([1]; plant No. 3, NAA 0.02 mg/l in infection induction medium): 69%
Transformation efficiency = No. of transgenic calli/No. of tested segments × 100 ([1]; plant No. 3, NAA 0.2 mg/l in infection induction medium): 38%
Transformation efficiency = No. of transgenic calli/No. of tested segments × 100 ([1]; plant No. 3, NAA 2.0 mg/l in infection induction medium): 59%
Transformation efficiency ([2]; infection medium NAA 0.02 mg/l, sterilization medium NAA 0.02 mg/l): 14%
Transformation efficiency ([2]; infection medium NAA 0.02 mg/l, sterilization medium NAA 2 mg/l): 4%
Transformation efficiency ([2]; infection medium NAA 2 mg/l, sterilization medium NAA 0.02 mg/l): 11%
Transformation efficiency ([2]; infection medium NAA 2 mg/l, sterilization medium NAA 2 mg/l): 42%
